Experimental data taken from PubChem BioAssay (NCI).
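Exposure lasted 48 hours, with cells grown in 96-well plates and compounds tested at five concentrations. TGI is the concentration that stops growth completely.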

What was measured:
Assay in all cases: NCI-60 cell line screen, 48 h
[1] = test system: HCT-15 colon
[2] = test system: HOP-18 NSCLC
[3] = test system: M14 melanoma
[4] = test system: M19-MEL melanoma
[5] = test system: UO-31 renal
[6] = test system: RXF-631 renal
[7] = test system: LXFL 529 NSCLC
[8] = test system: SN12C renal
[9] = test system: OVCAR-4 ovarian
[10] = test system: XF 498 CNS
[11] = test system: SNB-78 CNS
[12] = test system: KM20L2 colon
[13] = test system: DLD-1 colon
[14] = test system: DMS 114 small cell lung
[15] = test system: DMS 273 small cell lung
[16] = test system: HCC-2998 colon

## C/C(=N/NC(=O)c1ccccc1S(N)(=O)=O)C(CN1CCCCC1)C(C1=C(O)C2C=CC=CC2OC1=O)c1ccccc1 (centres undefined)
[1]
  TGI: > 100 µM
[2]
  TGI: > 100 µM
[3]
  TGI: > 100 µM
[4]
  TGI: > 100 µM
[5]
  TGI: > 100 µM
[6]
  TGI: > 100 µM
[7]
  TGI: > 100 µM
[8]
  TGI: > 100 µM
[9]
  TGI: > 100 µM
[10]
  TGI: > 100 µM
[11]
  TGI: > 100 µM
[12]
  TGI: > 100 µM
[13]
  TGI: > 100 µM

## CC(=O)OCC1OC(N2C(=O)[C@@H](Oc3ccccc3)[C@H]2/C=C/c2ccccc2)C(OC(C)=O)C(OC(C)=O)C1OC(C)=O (some centres undefined)
[14]
  TGI: > 100 µM
[1]
  TGI: > 100 µM
[3]
  TGI: > 100 µM
[4]
  TGI: > 100 µM
[5]
  TGI: > 100 µM
[7]
  TGI: > 100 µM
[8]
  TGI: > 100 µM
[9]
  TGI: > 100 µM
[10]
  TGI: > 100 µM
[11]
  TGI: > 100 µM
[12]
  TGI: > 100 µM
[15]
  TGI: > 100 µM
[13]
  TGI: > 100 µM
[16]
  TGI: > 100 µM

## CC1(OCc2ccccc2)C(=O)N2C1NCC2(C)C (centres undefined)
[14]
  TGI: > 100 µM
[1]
  TGI: > 100 µM
[3]
  TGI: > 100 µM
[4]
  TGI: > 100 µM
[5]
  TGI: > 100 µM
[6]
  TGI: > 100 µM
[7]
  TGI: > 100 µM
[8]
  TGI: > 100 µM
[9]
  TGI: > 100 µM
[10]
  TGI: > 100 µM
[12]
  TGI: > 100 µM
[15]
  TGI: > 100 µM
[13]
  TGI: > 100 µM
[16]
  TGI: > 100 µM

## CCN(CC)C(=O)CCn1ccc(=O)[nH]c1=O
[14]
  TGI: > 100 µM
[1]
  TGI: > 100 µM
[3]
  TGI: > 100 µM
[4]
  TGI: > 100 µM
[5]
  TGI: > 100 µM
[7]
  TGI: > 100 µM
[8]
  TGI: > 100 µM
[9]
  TGI: > 100 µM
[10]
  TGI: > 100 µM
[11]
  TGI: > 100 µM
[12]
  TGI: > 100 µM
[15]
  TGI: > 100 µM

## C=C(Br)C(C)(Cl)CCC(Br)C(C)(C)Br (centres undefined)
[14]
  TGI: 76 µM
[1]
  TGI: > 100 µM
[2]
  TGI: > 100 µM
[3]
  TGI: > 100 µM
[4]
  TGI: > 100 µM
[5]
  TGI: > 100 µM
[7]
  TGI: > 100 µM
[8]
  TGI: > 100 µM
[9]
  TGI: > 100 µM
[11]
  TGI: > 100 µM
[15]
  TGI: > 100 µM
[13]
  TGI: > 100 µM

## COc1ccc2c(O)c(Oc3ccc(Cl)cc3)c(=O)oc2c1
[1]
  TGI: > 100 µM
[3]
  TGI: > 100 µM
[5]
  TGI: > 100 µM
[8]
  TGI: > 100 µM
[9]
  TGI: > 100 µM
[16]
  TGI: > 100 µM

## CN1CCN(c2cc3[nH]c4cc(O)cc(O)c4c(=O)c3cc2N)CC1
[1]
  TGI: > 100 µM
[3]
  TGI: > 100 µM
[5]
  TGI: 67.3 µM
[8]
  TGI: 3.43 µM
[9]
  TGI: 69.5 µM
[16]
  TGI: 45.7 µM

## COc1cc(CN=c2nc(N(C)C)ss2)cc(OC)c1OC
[1]
  TGI: > 10 µM
[3]
  TGI: > 10 µM
[5]
  TGI: > 10 µM
[8]
  TGI: > 10 µM
[9]
  TGI: > 10 µM
[16]
  TGI: > 10 µM

## O=C1c2ccccc2C(=O)N1/N=C1/SC(=Nc2ccccc2)C(=Nc2ccccc2)N1c1ccccc1
[1]
  TGI: > 100 µM
[3]
  TGI: > 100 µM
[5]
  TGI: > 100 µM
[8]
  TGI: > 100 µM
[9]
  TGI: > 100 µM
[16]
  TGI: > 100 µM

## N/N=c1/nc2n(c3ncccc13)C=CNN2
[14]
  TGI: > 100 µM
[1]
  TGI: > 100 µM
[6]
  TGI: > 100 µM
[7]
  TGI: > 100 µM
[8]
  TGI: > 100 µM
[10]
  TGI: > 100 µM
[12]
  TGI: > 100 µM
[15]
  TGI: > 100 µM
[13]
  TGI: > 100 µM
[16]
  TGI: > 100 µM

## COC(=O)C(Cc1ccccc1)NC(=O)CSc1nnc(COc2ccc(Cl)cc2)n1-c1ccccc1 (centres undefined)
[1]
  TGI: > 100 µM
[3]
  TGI: 35.1 µM
[5]
  TGI: 3.34 µM
[8]
  TGI: 48.9 µM
[9]
  TGI: 64.9 µM
[16]
  TGI: 31.8 µM

## O=C(O)CN1CCSc2ccccc2CN(CC(=O)O)CCSc2ccccc2C1
[1]
  TGI: > 100 µM
[2]
  TGI: > 100 µM
[3]
  TGI: > 100 µM
[4]
  TGI: > 100 µM
[5]
  TGI: > 100 µM
[7]
  TGI: > 100 µM
[8]
  TGI: > 100 µM
[11]
  TGI: > 100 µM
[12]
  TGI: > 100 µM
[15]
  TGI: > 100 µM
[13]
  TGI: > 100 µM
[16]
  TGI: > 100 µM

## CN(C)c1cccc(-c2cc(=S)c3cc4c(cc3[nH]2)OCO4)c1
[1]
  TGI: > 100 µM
[3]
  TGI: > 100 µM
[5]
  TGI: > 100 µM
[8]
  TGI: > 100 µM
[9]
  TGI: > 100 µM
[16]
  TGI: > 77.7 µM

## N=C(N)SCc1ccc2c(c1)S(=O)(=O)c1ccccc1O2
[1]
  TGI: 87.9 µM
[3]
  TGI: 62.5 µM
[5]
  TGI: 29.7 µM
[8]
  TGI: > 100 µM
[9]
  TGI: 66.9 µM
[16]
  TGI: 56.8 µM

## C#CCN(Cc1ccc2nc(-c3ccccc3)c(Cl)nc2c1)c1ccc(F)cc1
[1]
  TGI: > 100 µM
[3]
  TGI: > 100 µM
[5]
  TGI: > 100 µM
[8]
  TGI: > 100 µM
[9]
  TGI: > 100 µM
[16]
  TGI: > 100 µM

## CC(C)(C)C(=O)/C=C(\OB(F)F)C(C)(C)C
[1]
  TGI: > 100 µM
[3]
  TGI: > 100 µM
[5]
  TGI: > 100 µM
[8]
  TGI: > 100 µM
[9]
  TGI: > 100 µM
[16]
  TGI: > 100 µM

## CC(C)=CCC[C@@H](C)[C@H]1CC[C@@]2(C)[C@@H]3CC[C@H]4C(C)(C)[C@@H](O)CC[C@@]45C[C@@]35CC[C@]12C
[1]
  TGI: > 100 µM
[3]
  TGI: > 85.1 µM
[5]
  TGI: > 66.2 µM
[8]
  TGI: 41.8 µM
[9]
  TGI: > 100 µM
[16]
  TGI: > 31.6 µM

## CC(C)(C)N(Cc1ccccc1)C(=O)/C=C\S(=O)c1ccccc1 (centres undefined)
[1]
  TGI: 18 µM
[3]
  TGI: 8.91 µM
[5]
  TGI: 7.71 µM
[8]
  TGI: 8.66 µM
[9]
  TGI: 9.25 µM
[16]
  TGI: 15.5 µM

## O=C(CNc1ccccc1[N+](=O)[O-])Nn1cnc2ccc(S(=O)(=O)Nc3ccccc3[N+](=O)[O-])cc2c1=O
[1]
  TGI: > 100 µM
[3]
  TGI: > 100 µM
[5]
  TGI: > 100 µM
[8]
  TGI: > 100 µM
[9]
  TGI: > 100 µM
[16]
  TGI: > 100 µM
